Experimental findings from patent publication US9408871B2, “Methods for inhibiting complement activation and uses thereof” (THE UNIVERSITY OF BRITISH COLUMBIA, priority 2013, dated 2016) are described below.

Experiment [1] deals with C5b,6, C5, C6, C7, thrombin. As to the kind of experiment: differential scanning fluorimetry (DSF), all proteins tested. Particulars: 1 mM. In kind it is binding. On the procedure: For DSF, 25 μL reaction mixes consisting of 0.4 mg/mL protein (0.14 mg/mL for C5b,6), varying concentrations of polyphosphate diluted in HBS (20 mM HEPES, 150 mM NaCl, pH 7.4), and 5× SYPRO Orange were loaded into MicroAmp Fast Optical 96-well Reaction Plates (Applied Biosystems). Samples were heat denatured in an Applied Biosystems StepOnePlus Real-Time PCR System using a ramp configuration starting at 25° C. and increasing at 1 C.° min^−1 to 95° C. Fluorescence (in relative fluorescence units, RFU) was measured every 30 seconds^38. Data for each curve were normalized to the maximum and the minimum of the curve.
In another approach, differential scanning fluorimetry (DSF) was used to determine the thermal stability of the complement proteins in the presence and absence of polyphosphate. This technique involves heat-denaturing proteins and exposing internal hydrophobic regions to the aqueous environment, which are detected by the fluorescent dye SYPRO Orange^38. Interactions between a protein and a binding partner often change the thermal stability of the protein, observed as a shift in the melting (denaturation) curve. C5b,6, C5, C6, and C7 were individually incubated with a range of concentrations of polyphosphate>1000 and relative fluorescence (RFU) was measured as the proteins were thermally denatured. An increase in RFU indicates protein denaturation. […]
A general note: In DSF a fluorescence change marks the thermal transition of the protein.

In another experiment the target is T1, C5b,6 (Homo sapiens, UniProt P01031+P13671).
T1 construct: C5 convertase that cleaves C5 into C5a and C5b; human plasma-derived C5b,6, C7, C8, and C9; purchased Complement Technology, Inc. (Tyler, Tex., USA); host or cells: human plasma
T1 sequence (P01031 19-673 limits assumed): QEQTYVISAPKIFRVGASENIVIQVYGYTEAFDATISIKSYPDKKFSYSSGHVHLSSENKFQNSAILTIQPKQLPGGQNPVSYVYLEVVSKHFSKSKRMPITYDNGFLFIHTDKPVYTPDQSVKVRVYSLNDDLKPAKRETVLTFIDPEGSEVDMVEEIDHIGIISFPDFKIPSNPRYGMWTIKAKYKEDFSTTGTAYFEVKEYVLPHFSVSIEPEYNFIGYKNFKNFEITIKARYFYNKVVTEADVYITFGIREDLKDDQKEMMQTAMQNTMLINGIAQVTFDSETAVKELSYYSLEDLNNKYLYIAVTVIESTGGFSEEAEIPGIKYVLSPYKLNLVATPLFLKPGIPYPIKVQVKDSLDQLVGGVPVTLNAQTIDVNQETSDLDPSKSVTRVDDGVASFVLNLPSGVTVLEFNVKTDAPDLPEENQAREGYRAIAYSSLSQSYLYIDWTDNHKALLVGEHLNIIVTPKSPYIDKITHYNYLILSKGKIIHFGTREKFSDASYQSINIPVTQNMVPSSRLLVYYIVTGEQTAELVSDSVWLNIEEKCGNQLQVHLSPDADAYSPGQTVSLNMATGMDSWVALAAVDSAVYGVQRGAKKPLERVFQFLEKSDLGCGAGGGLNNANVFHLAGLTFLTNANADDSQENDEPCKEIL
T1 sequence (P01031 752-1676 limits assumed): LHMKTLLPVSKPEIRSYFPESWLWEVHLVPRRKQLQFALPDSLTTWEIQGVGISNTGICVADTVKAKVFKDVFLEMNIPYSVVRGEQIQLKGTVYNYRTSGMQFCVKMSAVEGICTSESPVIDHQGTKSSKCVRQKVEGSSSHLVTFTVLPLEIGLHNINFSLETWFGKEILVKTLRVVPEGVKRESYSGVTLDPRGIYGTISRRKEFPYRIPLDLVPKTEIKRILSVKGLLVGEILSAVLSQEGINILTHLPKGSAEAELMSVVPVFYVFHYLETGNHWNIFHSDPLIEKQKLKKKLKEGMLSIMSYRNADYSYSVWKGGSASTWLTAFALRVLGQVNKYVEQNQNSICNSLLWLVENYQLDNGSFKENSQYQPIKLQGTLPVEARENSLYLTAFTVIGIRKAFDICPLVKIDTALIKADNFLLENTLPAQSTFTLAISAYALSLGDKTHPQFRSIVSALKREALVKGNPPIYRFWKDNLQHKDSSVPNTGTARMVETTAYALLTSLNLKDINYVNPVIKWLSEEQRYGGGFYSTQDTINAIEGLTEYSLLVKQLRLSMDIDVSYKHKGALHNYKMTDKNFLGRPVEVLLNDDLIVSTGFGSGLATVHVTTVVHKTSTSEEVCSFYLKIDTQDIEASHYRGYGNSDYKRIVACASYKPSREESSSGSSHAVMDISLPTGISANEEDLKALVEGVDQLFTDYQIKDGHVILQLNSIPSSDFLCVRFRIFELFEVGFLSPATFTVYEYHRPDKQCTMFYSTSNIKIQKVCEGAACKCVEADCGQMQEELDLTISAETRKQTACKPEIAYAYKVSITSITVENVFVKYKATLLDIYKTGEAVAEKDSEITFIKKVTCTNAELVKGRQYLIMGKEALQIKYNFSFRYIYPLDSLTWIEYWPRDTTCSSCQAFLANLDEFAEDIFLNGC
T1 sequence (P13671 22-934): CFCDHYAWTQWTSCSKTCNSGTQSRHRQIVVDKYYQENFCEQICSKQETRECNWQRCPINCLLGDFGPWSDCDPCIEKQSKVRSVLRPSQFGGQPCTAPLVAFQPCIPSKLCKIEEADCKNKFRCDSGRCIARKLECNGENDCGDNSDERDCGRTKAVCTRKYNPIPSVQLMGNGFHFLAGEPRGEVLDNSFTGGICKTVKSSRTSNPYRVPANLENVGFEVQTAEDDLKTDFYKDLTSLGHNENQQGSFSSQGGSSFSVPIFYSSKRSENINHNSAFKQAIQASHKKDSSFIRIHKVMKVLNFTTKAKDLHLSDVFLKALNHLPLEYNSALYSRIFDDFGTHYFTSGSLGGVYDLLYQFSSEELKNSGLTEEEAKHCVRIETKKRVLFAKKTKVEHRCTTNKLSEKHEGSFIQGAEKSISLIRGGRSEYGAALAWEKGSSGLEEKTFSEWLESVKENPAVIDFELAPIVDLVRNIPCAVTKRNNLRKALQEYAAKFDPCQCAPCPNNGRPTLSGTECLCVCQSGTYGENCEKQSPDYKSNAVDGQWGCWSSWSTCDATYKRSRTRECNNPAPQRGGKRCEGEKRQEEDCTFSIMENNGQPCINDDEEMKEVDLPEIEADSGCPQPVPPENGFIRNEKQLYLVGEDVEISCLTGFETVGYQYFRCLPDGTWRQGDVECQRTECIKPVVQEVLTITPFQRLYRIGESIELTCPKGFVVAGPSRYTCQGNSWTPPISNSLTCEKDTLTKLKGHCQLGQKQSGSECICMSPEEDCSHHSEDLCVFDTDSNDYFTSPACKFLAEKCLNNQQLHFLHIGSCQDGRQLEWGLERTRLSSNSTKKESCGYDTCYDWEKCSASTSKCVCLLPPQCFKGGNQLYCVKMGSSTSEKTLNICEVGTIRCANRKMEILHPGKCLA
As to the kind of experiment: analytic gel filtration. In kind it is binding. Particulars: 10 mM. On the procedure: Proteins were stored in their stock solution buffers. The C5b,6 buffer consisted of 10 mM HEPES, 120 mM NaCl, pH 7.2. The C7 buffer consisted of 10 mM Na3PO4, 145 mM NaCl, at pH 7.3 (PBS). The buffers were filtered through a 0.22 μm pore diameter Stericup and Steritop Express™ PLUS filter from Millipore (Billerica, Mass., USA).
Proteins were thawed at 37° C. for 10 min. An excess amount of protein was removed from the stock vial and transferred to a clean 600 μL microtube. C7 was diluted to […]. The proteins were centrifuged at 20,817 g for 15 min and under a Class 2A Biosafety Cabinet, 100 μL fractions were transferred to clean microtubes. The following samples were analyzed by gel filtration:
For all samples, 20 μg of the protein in 100 μL of their respective buffers was prepared. For samples containing polyphosphate, 8 μL of 400 mM polyP>1000 was mixed with 2 μL of 5× concentrated HBS (for C5b,6) or PBS (for C7), yielding a solution of 320 mM polyP>1000 in HBS or PBS. 3.13 μL of the polyphosphate solution was added to 100 μL of either C5b,6 or C7, for a final polyP>1000 concentration of 9.71 mM. […]
The gel filtration apparatus, ÄKTAmicro System from G.E. Healthcare (Buckinghamshire, UK), was equilibrated with either HBS (0.22 μm filtered) for C5b,6 or PBS (0.22 μm filtered) for C7 for at least 1 hour, at 5 μL per minute. […] Protein was monitored with UV absorbance at 280 nm. […]
Background: In gel filtration, larger molecules generally elute earlier.

For the compound `O=P(O)(O)O` [P1, Orthophosphate], the “effect on thermal stability (DSF)” value in experiment [1] is given as “had no effect on the thermal stability”. Further, the “effect on C5b,6 elution profile in gel filtration” value on C5b,6 is on record as “did not affect the retention time or elution profile”.
